Source: US20260285857A1, “BICYCLIC AND HETEROCYCLIC AMIDE COMPOUNDS” (priority 2024, published 2026)

test system: immunoglobulin light chain protein WIL-FL T46L; test: Differential scanning fluorimetry (thermal shift) assay; assay type: binding; settings: Table A; temperature shift [Tm]compound-[Tm]vehicle; recombinant WIL-FL T46L

SMILES | DSF
Cc1cc(N2CCC(C)(c3c(F)cccc3F)C2)cn2nc(C(=O)N3C[C@@H]4CN(c5cccc(C(=O)O)n5)C[C@@H]4C3)nc12 (stereo partly drawn) [Compound 389] | ***** (>2.5° C.=*****)
CCNC(=O)C12COC(c3nc4c(C)cc(N5CC[C@](C)(c6ccccc6)C5)cn4n3)(C1)C2 [Compound 54] | ***** (>2.5° C.=*****)
Cc1cc(N2CC[C@](C)(c3ccccc3)C2)cn2nc(C(=O)N3CCC4(CCN(C5CCC(C(=O)O)CC5)C4)C3)nc12 (stereo partly drawn) [Compound 377] | ***** (>2.5° C.=*****)
Cc1cc(N2CC[C@](C)(c3ccccc3)C2)cn2nc(C(=O)NC34CCC(C(C)(C)O)(C3)C4)nc12 [Compound 208] | ***** (>2.5° C.=*****)
Cc1cc(N2CC[C@](C)(c3ccccc3)C2)cn2nc(C(=O)N[C@@H](C)CO)nc12 [Compound 139] | ***** (>2.5° C.=*****)
Cc1cc(N2CC[C@](C)(c3ccccc3)C2)cn2nc(C(=O)NC3CCN(c4cccc(C(=O)O)c4)CC3)nc12 [Compound 273] | ***** (>2.5° C.=*****)
Cc1cc(N2CC[C@](C)(c3ccccc3)C2)cn2nc(C(=O)N3C[C@@H]4CN(c5cccc(C(=O)O)n5)C[C@@H]4C3)nc12 [Compound 194] | ***** (>2.5° C.=*****)
Cc1cc(N2CC[C@](C)(c3ccccc3)C2)cn2nc(C(=O)NC3CC(N4C[C@@H](O)[C@@H](O)C4)C3)nc12 (stereo partly drawn) [Compound 361] | ***** (>2.5° C.=*****)
Cc1cc(N2CC[C@](C)(c3ccccc3)C2)cn2nc(C(=O)N3CCC4(CCN(c5ncno5)C4)C3)nc12 (stereo partly drawn) [Compound 253] | ***** (>2.5° C.=*****)
Cc1cc(N2CC[C@](C)(c3ccccc3)C2)cn2nc(C(=O)NC3CCN(c4cccc(C(=O)O)n4)CC34COC4)nc12 (stereo partly drawn) [Compound 20, 6-(9-(8-methyl-6-((R)-3-methyl-3-phenylpyrrolidin-1-yl)-[1,2,4]triazolo[1,5-a]pyridine-2-carboxamido)-2-oxa-6-azaspiro[3.5]nonan-6-yl)picolinic acid] | ***** (>2.5° C.=*****)
CCC(=O)N1CC(O)C(NC(=O)c2nc3c(C)cc(N4CC[C@](C)(c5ccccc5)C4)cn3n2)C1 (stereo partly drawn) [Compound 108] | ***** (>2.5° C.=*****)
Cc1cc(N2CC[C@](C)(c3ccccc3)C2)cn2nc(C(=O)NCC3(C(=O)O)CC3)nc12 [Compound 165] | ***** (>2.5° C.=*****)
Cc1cc(N2CC[C@](C)(c3ccccc3)C2)cn2nc(C(=O)N(C)[C@@H]3CCNC3)nc12 [Compound 114] | ***** (>2.5° C.=*****)
COC(=O)CC1CCN(C(=O)c2nc3c(C)cc(N4CC[C@](C)(c5ccccc5)C4)cn3n2)C1 (stereo partly drawn) [Compound 143] | ***** (>2.5° C.=*****)
CNC(=O)c1nc2c(C)cc(N3CCC(C)(c4nccs4)C3)cn2n1 (stereo not drawn) [Compound 15, N,8-dimethyl-6-(3-methyl-3-(thiazol-2-yl)pyrrolidin-1-yl)-[1,2,4]triazolo[1,5-a]pyridine-2-carboxamide] | ***** (>2.5° C.=*****)

same assay, conditions: Table B; temperature shift [Tm]compound-[Tm]vehicle; recombinant WIL-FL T46L

SMILES | DSF
Cc1cc(N2CC[C@](C)(c3ccccc3)C2)cn2nc(C34CC(CO3)C4c3nc(NC(=O)CC4(C(=O)O)CC4)n[nH]3)nc12 (stereo partly drawn) [Compound 559] | ***** (>2.5° C.=*****)
Cc1cc(N2CC[C@](C)(c3ccccc3)C2)cn2nc(C34CC(CO3)C4c3nc(NC(=O)C4CC5(CC(C(=O)O)C5)C4)n[nH]3)nc12 (stereo partly drawn) [Compound 560] | ***** (>2.5° C.=*****)
Cc1cc(N2CC[C@](C)(c3ccccc3)C2)cn2nc(C34CC(CO3)C4Cn3cc(CO)nn3)nc12 (stereo partly drawn) [Compound 481] | ***** (>2.5° C.=*****)
Cc1cc(N2CC[C@](C)(c3ccccc3)C2)cn2nc(C34CC(CC(=O)Nc5cccc(C(=O)O)n5)(CO3)C4)nc12 [Compound 460, 6-[[2-[1-[8-methyl-6-[(3R)-3-methyl-3-phenyl-pyrrolidin-1-yl]-[1,2,4]triazolo[1,5-a]pyridin-2-yl]-2-oxabicyclo[2.1.1]hexan-4-yl]acetyl]amino]pyridine-2-carboxylic acid] | ***** (>2.5° C.=*****)
Cc1ccc([C@@]2(C)CCN(c3cc(C)c4nc(C(=O)N5CC[C@@]6(CCN(c7cccc(C(=O)O)n7)C6)C5)nn4c3)C2)cc1 [Compound 750] | ***** (>2.5° C.=*****)
Cc1cc(N2CC[C@](C)(c3ccccc3)C2)cn2nc(C34CC(C(=O)NC5CCOC5)(CO3)C4)nc12 (stereo partly drawn) [Compound 446] | ***** (>2.5° C.=*****)
CCS(=O)(=O)Nc1n[nH]c(C2C3(CNC(=O)CC(C)(C)C(=O)O)COC2(c2nc4c(C)cc(N5CC[C@](C)(c6ccccc6)C5)cn4n2)C3)n1 (stereo partly drawn) [Compound 547, 4-[[5-[3-(ethylsulfonylamino)-1H-1,2,4-triazol-5-yl]-1-[8-methyl-6-[(3R)-3-methyl-3-phenyl-pyrrolidin-1-yl]-[1,2,4]triazolo[1,5-a]pyridin-2-yl]-2-oxabicyclo[2.1.1]hexan-4-yl]methylamino]-2,2-dimethyl-4-oxo-butanoic acid] | ***** (>2.5° C.=*****)
Cc1cc(N2CC[C@](C)(c3ccccc3)C2)cn2nc(C34CC(CO3)C4Cc3nnn[nH]3)nc12 (stereo partly drawn) [Compound 504] | ***** (>2.5° C.=*****)
Cc1n[nH]c(C23CC(NC(=O)c4nc5c(C)cc(N6CC[C@](C)(c7ccccc7)C6)cn5n4)(CO2)C3)n1 [Compound 591, (R)-8-methyl-N-(1-(3-methyl-1H-1,2,4-triazol-5-yl)-2-oxabicyclo[2.1.1]hexan-4-yl)-6-(3-methyl-3-phenylpyrrolidin-1-yl)-[1,2,4]triazolo[1,5-a]pyridine-2-carboxamide] | ***** (>2.5° C.=*****)
Cc1cc(N2CC[C@](C)(c3ccccc3)C2)cn2nc(C(=O)N3CCC4(CCC(C5CCC(C(=O)O)CC5)C4)C3)nc12 (stereo partly drawn) [Compound 674, 4-(2-(8-methyl-6-((R)-3-methyl-3-phenylpyrrolidin-1-yl)-[1,2,4]triazolo[1,5-a]pyridine-2-carbonyl)-2-azaspiro[4.4]nonan-7-yl)cyclohexane-1-carboxylic acid] | ***** (>2.5° C.=*****)
Cc1cc(N2CC[C@](C)(c3ccccc3)C2)cn2nc(C34CC(CO3)C4CN3CCC(C(=O)O)CC3=O)nc12 (stereo partly drawn) [Compound 490] | ***** (>2.5° C.=*****)
Cc1cc(N2CC[C@](C)(c3ccccc3)C2)cn2nc(C(=O)N3CCC4(C3)CN(c3cccc(C(=O)O)n3)C(=O)O4)nc12 (stereo partly drawn) [Compound 687] | ***** (>2.5° C.=*****)
Cc1cc(N2CC3(CCC3c3cccc(F)c3)C2)cn2nc(C34CC(CO3)C4N3CC4(CC4)NC3=O)nc12 (stereo not drawn) [Compound 512, 6-[1-[6-[7-(3-fluorophenyl)-2-azaspiro[3.3]heptan-2-yl]-8-methyl-[1,2,4]triazolo[1,5-a]pyridin-2-yl]-2-oxabicyclo[2.1.1]hexan-5-yl]-4,6-diazaspiro[2.4]heptan-5-one] | ***** (>2.5° C.=*****)
Cc1cc(N2CC[C@](C)(c3ccccc3)C2)cn2nc(C(=O)N3C[C@@H]4CN(c5cccc(C(=O)O)n5)C[C@]4(C)C3)nc12 [Compound 643] | ***** (>2.5° C.=*****)
Cc1cc(N2CC[C@](C)(c3ccccc3)C2)cn2nc(C34CC(CO3)C4c3nc(NC(=O)c4cccnc4C(=O)O)n[nH]3)nc12 (stereo partly drawn) [Compound 558] | ***** (>2.5° C.=*****)
